PubChem BioAssay (NCI)
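Cultured in 96-well plates, cells were exposed to test compound for 48 hours across five concentrations. GI50 marks 50% less growth. TGI: total growth inhibition.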

Assays:
Experiment in all cases: NCI tumour cell line growth inhibition, 48 h
SNB-75 CNS = test system: SNB-75 CNS
CCRF-CEM leukemia = test system: CCRF-CEM leukemia
K-562 leukemia = test system: K-562 leukemia
NCI-H460 lung = test system: NCI-H460 lung
CAKI-1 renal = test system: CAKI-1 renal
TK-10 renal = test system: TK-10 renal
MDA-MB-435 = test system: MDA-MB-435
SN12C renal = test system: SN12C renal
COLO 205 colon = test system: COLO 205 colon
SF-295 CNS = test system: SF-295 CNS
DU-145 prostate = test system: DU-145 prostate
ACHN renal = test system: ACHN renal
RXF 393 renal = test system: RXF 393 renal
SK-MEL-2 melanoma = test system: SK-MEL-2 melanoma
HOP-92 NSCLC = test system: HOP-92 NSCLC
OVCAR-3 ovarian = test system: OVCAR-3 ovarian
BT-549 breast = test system: BT-549 breast

Structure (SMILES) | TGI (SNB-75 CNS) | TGI (CCRF-CEM leukemia) | TGI (K-562 leukemia) | TGI (NCI-H460 lung) | TGI (CAKI-1 renal) | TGI (TK-10 renal) | TGI (MDA-MB-435) | TGI (SN12C renal) | TGI (COLO 205 colon) | TGI (SF-295 CNS) | TGI (DU-145 prostate) | TGI (ACHN renal) | TGI (RXF 393 renal) | TGI (SK-MEL-2 melanoma) | TGI (HOP-92 NSCLC) | TGI (OVCAR-3 ovarian) | GI50 (SF-295 CNS) | GI50 (RXF 393 renal) | GI50 (OVCAR-3 ovarian) | TGI (BT-549 breast)
N=CN=CC(=S)O[C@@H]1C(=O)N2CCC[C@@]23CCCC[C@@H]13 | > 12.5 µM | > 12.5 µM | > 12.5 µM | > 12.5 µM | > 12.5 µM | > 12.5 µM | > 12.5 µM | > 12.5 µM | > 12.5 µM | > 12.5 µM | > 12.5 µM | > 12.5 µM | > 12.5 µM | > 12.5 µM |  |  |  |  |  | 
CCOC(=O)c1cnc2sc3ccc4ccccc4c3n2c1=O | > 100 µM | 82.6 µM | > 100 µM | > 100 µM | 99.4 µM | > 100 µM |  | > 100 µM | > 100 µM | > 100 µM |  | > 100 µM | > 100 µM | > 100 µM | > 100 µM | > 100 µM |  |  |  | 
COc1ccc(/C=C2\CCC(CCN(C)C)(C3=CCCC3)C2=O)cc1Br (stereo unspecified) | 17.5 µM | 5.74 µM | 5.23 µM | 25.6 µM | 21.2 µM | 20 µM |  | 22 µM | 3.01 µM | 13.7 µM |  | 21.5 µM | 6.99 µM | 22.2 µM | 11.3 µM | 19.3 µM |  |  |  | 
CCCCNC(=O)C1C2CCC(O2)C1C(=O)O (stereo unspecified) | 52.1 µM |  |  | > 100 µM |  | 42.5 µM |  | 30.9 µM | 32.5 µM | 74.7 µM |  | 57.7 µM | 8.44 µM | 54.8 µM | 39 µM | 31.5 µM |  |  |  | 
COc1ccc(/C(=C/n2ccnc2)C(O)c2ccc(OC)c(OC)c2)cc1OC (stereo unspecified) | > 100 µM | > 100 µM | > 100 µM | > 100 µM |  | > 100 µM |  | > 100 µM | > 100 µM | > 100 µM |  |  | > 100 µM | > 100 µM | > 100 µM | > 100 µM |  |  |  | 
O=C(O)[C@H](Cc1ccccc1)NCCN1CCC[C@H]1C(=O)O |  |  | > 100 µM | > 100 µM | > 100 µM |  | > 100 µM | > 100 µM | > 100 µM | > 100 µM | > 100 µM |  | > 100 µM | > 100 µM | 72.3 µM | > 100 µM |  |  |  | 
C=C1C(OC(=O)/C=C/c2ccccc2)CC(OC(C)=O)C2(C)C1CC1CC(OC(C)=O)C(C)=C(C(OC(C)=O)C2OC(C)=O)C1(C)C (stereo unspecified) | > 100 µM | > 100 µM | > 100 µM | > 100 µM | > 100 µM | > 100 µM |  | > 100 µM | > 100 µM | > 100 µM |  |  |  |  | > 100 µM |  |  |  |  | 
O=c1cc(-c2ccco2)[nH]c2cc3c(cc12)OCO3 | 56.5 µM | > 100 µM | > 100 µM | > 100 µM |  | > 100 µM |  | > 100 µM | 78.5 µM | > 100 µM |  | > 100 µM | 92.8 µM | > 100 µM |  | > 100 µM | 28.1 µM | 24.9 µM | 42.9 µM | 
C#CCN(N=O)C(=O)NCCCCC(NC(C)=O)C(=O)NCc1ccccc1 (stereo unspecified) | > 100 µM | > 100 µM | > 100 µM | > 100 µM | > 100 µM | > 100 µM |  | > 100 µM | > 100 µM | > 100 µM |  | > 100 µM | > 100 µM |  | > 100 µM | > 100 µM |  |  |  | 
CN(C)c1nncc2n[nH]nc12 | > 100 µM | > 100 µM | > 100 µM |  | > 100 µM | > 100 µM | > 100 µM | > 100 µM | > 100 µM | > 100 µM |  | > 100 µM |  | > 100 µM | > 100 µM | > 100 µM |  |  |  | > 100 µM
Cc1[nH]c(=O)[nH]c1C(=O)c1ccc(-n2ccnc2)cc1 | > 100 µM |  | > 100 µM | > 100 µM | > 100 µM |  |  | > 100 µM |  | > 100 µM |  | > 100 µM | > 100 µM | > 100 µM |  | > 100 µM |  |  |  | 
O=C1c2ccccc2C(=O)C1C(c1ccc(F)cc1)C1C(=O)c2ccccc2C1=O | > 100 µM | > 100 µM | > 100 µM | > 100 µM | > 100 µM | > 100 µM |  | > 100 µM | > 100 µM | > 100 µM |  | > 100 µM | 71.3 µM | > 100 µM | > 100 µM | > 100 µM |  |  |  | 
C/C=C1\CN2CCc3c([nH]c4ccccc34)C2C=C1CCO (stereo unspecified) |  | > 340 µM | > 340 µM | > 340 µM | > 340 µM | > 340 µM |  | > 340 µM | > 340 µM | > 340 µM |  | > 340 µM | > 340 µM | > 340 µM | > 340 µM | > 340 µM |  |  |  | 
